{
  "source": "ChEMBL document CHEMBL1147631",
  "about": "“Aminomethylpyrimidines as novel DPP-IV inhibitors: a 10(5)-fold activity increase by optimization of aromatic substituents” (Bioorg Med Chem Lett, 2004)",
  "target": "Dipeptidyl peptidase 4 (Homo sapiens, UniProt P27487)",
  "sequence (P27487 whole entry)": "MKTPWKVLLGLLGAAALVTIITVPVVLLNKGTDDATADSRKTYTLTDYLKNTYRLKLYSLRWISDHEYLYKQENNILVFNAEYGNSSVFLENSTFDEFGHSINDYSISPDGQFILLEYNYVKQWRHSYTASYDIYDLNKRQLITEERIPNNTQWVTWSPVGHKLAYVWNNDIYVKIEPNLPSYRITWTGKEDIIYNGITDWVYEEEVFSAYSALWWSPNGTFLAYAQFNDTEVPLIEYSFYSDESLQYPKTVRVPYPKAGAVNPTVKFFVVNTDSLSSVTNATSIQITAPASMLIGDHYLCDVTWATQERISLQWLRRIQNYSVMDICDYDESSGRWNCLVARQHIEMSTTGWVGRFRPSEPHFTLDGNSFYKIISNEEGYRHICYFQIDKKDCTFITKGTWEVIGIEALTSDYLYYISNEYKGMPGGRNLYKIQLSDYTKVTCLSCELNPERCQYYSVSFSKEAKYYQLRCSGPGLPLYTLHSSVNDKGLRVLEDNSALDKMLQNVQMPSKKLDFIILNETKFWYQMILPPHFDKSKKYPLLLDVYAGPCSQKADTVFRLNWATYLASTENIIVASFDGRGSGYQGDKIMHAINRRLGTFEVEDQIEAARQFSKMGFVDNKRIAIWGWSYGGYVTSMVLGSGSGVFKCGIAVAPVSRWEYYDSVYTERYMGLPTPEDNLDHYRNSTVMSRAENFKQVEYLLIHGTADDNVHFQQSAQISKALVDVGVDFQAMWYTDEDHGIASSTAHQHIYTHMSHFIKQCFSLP",
  "test": "Inhibitory activity against Dipeptidylpeptidase IV mediated cleavage of Ala-Pro-7-amido-4-tri-fluoromethylcoumarin in a fluorogenic assay",
  "type": "functional",
  "data": [
    {"smiles": "NCc1c(N)nc(-c2ccccc2)nc1-c1ccccc1C(F)(F)F", "values": [
      {"measurement": "IC50", "result": 14, "unit": "µM"}
    ]},
    {"smiles": "Cc1ccccc1-c1nc(-c2ccccc2)nc(N)c1CN", "values": [
      {"measurement": "IC50", "result": 1.5, "unit": "µM"}
    ]},
    {"smiles": "NCc1c(N)nc(-c2ccccc2F)nc1-c1ccc(Cl)cc1Cl", "values": [
      {"measurement": "IC50", "result": 0.047, "unit": "µM"}
    ]},
    {"smiles": "COc1ccccc1-c1nc(N)c(CN)c(-c2ccc(Cl)cc2Cl)n1", "values": [
      {"measurement": "IC50", "result": 0.35, "unit": "µM"}
    ]},
    {"smiles": "NCc1c(N)nc(-c2ccccc2)nc1-c1cccc(C(F)(F)F)c1", "values": [
      {"measurement": "IC50", "result": 170, "unit": "µM"}
    ]},
    {"smiles": "NCc1c(N)nc(-c2ccccc2)nc1-c1ccc(C(F)(F)F)cc1", "values": [
      {"measurement": "IC50", "result": 1.1, "unit": "µM"}
    ]},
    {"smiles": "NCc1c(N)nc(-c2ccccc2)nc1-c1ccccc1Cl", "values": [
      {"measurement": "IC50", "result": 2.5, "unit": "µM"}
    ]},
    {"smiles": "NCc1c(N)nc(-c2ccccc2)nc1-c1ccc(Cl)cc1", "values": [
      {"measurement": "IC50", "result": 1.4, "unit": "µM"}
    ]},
    {"smiles": "NCc1c(N)nc(-c2ccccc2)nc1-c1ccc(F)cc1", "values": [
      {"measurement": "IC50", "result": 18, "unit": "µM"}
    ]},
    {"smiles": "NCc1c(N)nc(-c2ccccc2)nc1-c1ccc(Cl)cc1Cl", "values": [
      {"measurement": "IC50", "result": 0.01, "unit": "µM"}
    ]},
    {"smiles": "COc1ccc(-c2nc(-c3ccccc3)nc(N)c2CN)cc1", "values": [
      {"measurement": "IC50", "result": 47, "unit": "µM"}
    ]},
    {"smiles": "NCc1c(N)nc(-c2ccccc2)nc1-c1cccc(F)c1", "values": [
      {"measurement": "IC50", "result": 40, "unit": "µM"}
    ]},
    {"smiles": "NCc1c(N)nc(-c2ccccc2)nc1-c1ccccc1F", "values": [
      {"measurement": "IC50", "result": 14, "unit": "µM"}
    ]},
    {"smiles": "NCc1c(N)nc(-c2cccc(Cl)c2)nc1-c1ccc(Cl)cc1Cl", "values": [
      {"measurement": "IC50", "result": 0.24, "unit": "µM"}
    ]},
    {"smiles": "Cc1cccc(-c2nc(-c3ccccc3)nc(N)c2CN)c1", "values": [
      {"measurement": "IC50", "result": 20, "unit": "µM"}
    ]},
    {"smiles": "COc1ccc(-c2nc(N)c(CN)c(-c3ccc(Cl)cc3Cl)n2)cc1", "values": [
      {"measurement": "IC50", "result": 0.1, "unit": "µM"}
    ]},
    {"smiles": "COc1cccc(-c2nc(N)c(CN)c(-c3ccc(Cl)cc3Cl)n2)c1", "values": [
      {"measurement": "IC50", "result": 0.34, "unit": "µM"}
    ]},
    {"smiles": "Cc1ccccc1-c1nc(N)c(CN)c(-c2ccc(Cl)cc2Cl)n1", "values": [
      {"measurement": "IC50", "result": 1.75, "unit": "µM"}
    ]},
    {"smiles": "COc1cccc(-c2nc(-c3ccccc3)nc(N)c2CN)c1", "values": [
      {"measurement": "IC50", "result": 80, "unit": "µM"}
    ]},
    {"smiles": "Cc1ccc(-c2nc(N)c(CN)c(-c3ccc(Cl)cc3Cl)n2)cc1", "values": [
      {"measurement": "IC50", "result": 0.09, "unit": "µM"}
    ]},
    {"smiles": "NCc1c(N)nc(-c2ccc(F)c(F)c2)nc1-c1ccc(Cl)cc1Cl", "values": [
      {"measurement": "IC50", "result": 0.003, "unit": "µM"}
    ]},
    {"smiles": "NCc1c(N)nc(-c2ccccc2)nc1-c1ccccc1", "values": [
      {"measurement": "IC50", "result": 42, "unit": "µM"}
    ]},
    {"smiles": "NCc1c(N)nc(-c2ccc(C(F)(F)F)cc2)nc1-c1ccc(Cl)cc1Cl", "values": [
      {"measurement": "IC50", "result": 0.18, "unit": "µM"}
    ]},
    {"smiles": "NCc1c(N)nc(-c2cccc(C(F)(F)F)c2)nc1-c1ccc(Cl)cc1Cl", "values": [
      {"measurement": "IC50", "result": 0.13, "unit": "µM"}
    ]},
    {"smiles": "Cc1ccc(-c2nc(-c3ccccc3)nc(N)c2CN)cc1", "values": [
      {"measurement": "IC50", "result": 1, "unit": "µM"}
    ]},
    {"smiles": "NCc1c(N)nc(-c2ccccc2)nc1-c1cccc(Cl)c1", "values": [
      {"measurement": "IC50", "result": 31, "unit": "µM"}
    ]},
    {"smiles": "NCc1c(N)nc(-c2ccc(F)cc2)nc1-c1ccc(Cl)cc1Cl", "values": [
      {"measurement": "IC50", "result": 0.0002, "unit": "µM"}
    ]},
    {"smiles": "COc1ccccc1-c1nc(-c2ccccc2)nc(N)c1CN", "values": [
      {"measurement": "IC50", "result": 1.5, "unit": "µM"}
    ]},
    {"smiles": "NCc1c(N)nc(-c2ccc(Cl)cc2)nc1-c1ccc(Cl)cc1Cl", "values": [
      {"measurement": "IC50", "result": 0.053, "unit": "µM"}
    ]},
    {"smiles": "Cc1cccc(-c2nc(N)c(CN)c(-c3ccc(Cl)cc3Cl)n2)c1", "values": [
      {"measurement": "IC50", "result": 0.0009, "unit": "µM"}
    ]}
  ]
}
